Measured values taken from paper PMC6273912, “Novel 5-Substituted 2-(Aylmethylthio)-4-chloro-N-(5-aryl-1,2,4-triazin-3-yl)benzenesulfonamides: Synthesis, Molecular Structure, Anticancer Activity, Apoptosis-Inducing Activity and Metabolic Stability” (Molecules, 2016).

Columns and labels:
Format in all cases: cell-based, human
HCT-116 (colon cancer) = test: MTT cell viability assay, HCT-116; conditions: Homo sapiens, HCT-116, 72 h, 72 h of incubation, mean ± SD
Procedure: (§1) All chemicals, if not stated otherwise, were obtained from Sigma-Aldrich (St. Louis, MO, USA). The MCF-7 cell line was purchased from Cell Lines Services (Eppelheim, Germany), the HeLa and HCT-116 cell lines were obtained from the Department of Microbiology, Tumor and Cell Biology, Karolinska Institute (Stockholm, Sweden). Cells were cultured in Dulbecco’s modified Eagle’s medium (DMEM) supplemented with 10% fetal bovine serum, 2 mM glutamine, 100 units/mL penicillin, and 100 μg/mL streptomycin. Cultures were maintained in a humidified atmosphere with 5% CO2 at 37 °C in an incubator (HeraCell, Heraeus, Langenselbold, Germany).
(§2) Cell viability was determined using the MTT (3-(4,5-dimethylthiazol-2-yl)-2,5-diphenyl-tetrazoliumbromide) assay. Stock solutions of the studied compounds were prepared in 100% DMSO. […] Cells were seeded in 96-well plates at a density of 5 × 10^3 cells/well and treated for 72 h with the examined compounds in the concentration range 1–100 μM (1, 10, 25, 50 and 100 μM). Following treatment, MTT (0.5 mg/mL) was added to the medium and cells were further incubated for 2 h at 37 °C. Cells were lysed with DMSO and the absorbance of the formazan solution was measured at 550 nm with a plate reader (1420 multilabel counter, Victor, Jügesheim, Germany). […] The experiment was performed in triplicate. Values are expressed as the mean ± SD of at least three independent experiments.

HeLa (cervical cancer) = test: MTT cell viability assay, HeLa; conditions: Homo sapiens, 72 h; for IC50: 72 h of incubation, mean ± SD
Procedure: as §1, §2

MCF-7 (breast cancer) = test: MTT cell viability assay, MCF-7; conditions: mean ± SD
Procedure: as §1, §2

[1] = Homo sapiens, MCF7, 72 h of incubation

Structure (SMILES)	IC50 (HCT-116 (colon cancer))	IC50 (HeLa (cervical cancer))	IC50 (MCF-7 (breast cancer); [1])	IC50 (MCF-7 (breast cancer); 72 h of incubation)	viability at 100 µM (HeLa (cervical cancer); HeLa, 100 μM, read-out: Viability of cell line at 100 μM (HeLa))
COc1cccc(-c2cnnc(NS(=O)(=O)c3cc(C(=O)Nc4ccccc4)c(Cl)cc3SCc3ccccc3)n2)c1 [Compound 43, 4-Benzylthio-2-chloro-5-{N-[5-(3-methoxyphenyl)-1,2,4-triazin-3-yl]sulfamoyl}-N-phenylbenzamide]	92 ± 3 µM	130 ± 10 µM	87 ± 2 µM	–	–
COc1ccc(-c2cnnc(NS(=O)(=O)c3cc(C(=O)Nc4ccccc4)c(Cl)cc3SCc3ccccc3)n2)cc1OC [Compound 44, 4-Benzylthio-2-chloro-5-{N-[5-(3,4-dimethoxyphenyl)-1,2,4-triazin-3-yl]sulfamoyl}-N-phenylbenzamide]	160 ± 6 µM	160 ± 8 µM	90 ± 5 µM	–	–
COc1ccc(-c2cnnc(NS(=O)(=O)c3cc(C)c(Cl)cc3SCc3c(C)noc3C)n2)cc1 [Compound 41, 4-Chloro-2-[(3,5-dimethylizoxazol-4-yl)methylthio]-N-[5-(4-methoxyphenyl)-1,2,4-triazin-3-yl]-5-methyl-benzenesulfonamide]	97 ± 2 µM	85 ± 1 µM	99 ± 1 µM	–	–
COc1ccc(NC(=O)c2cc(S(=O)(=O)Nc3nncc(-c4cc(OC)c(OC)c(OC)c4)n3)c(SCc3ccccc3)cc2Cl)cc1 [Compound 60, 4-Benzylthio-2-chloro-N-(4-methoxyphenyl)-5-{N-[5-(3,4,5-trimethoxyphenyl)-1,2,4-triazin-3-yl]sulfamoyl}-benzamide]	230 ± 18 µM	230 ± 5 µM	270 ± 13 µM	–	–
N.N.[Cl][Pt][Cl] [Cisplatin, reference compound]	–	–	–	3 ± 0.1 µM	–
COc1ccc(-c2cnnc(NS(=O)(=O)c3cc(C(=O)Nc4ccc(C)cc4)c(Cl)cc3SCc3ccccc3)n2)cc1OC [Compound 55, 4-Benzylthio-2-chloro-5-{N-[5-(3,4-dimethoxyphenyl)-1,2,4-triazin-3-yl]sulfamoyl}-N-(4-methylphenyl)-benzamide]	150 ± 3 µM	105 ± 4 µM	150 ± 6 µM	–	–
O=C(Nc1ccc(Cl)cc1)c1cc(S(=O)(=O)Nc2nncc(-c3cccc(F)c3)n2)c(SCc2ccccc2)cc1Cl [Compound 45, 4-Benzylthio-2-chloro-N-(4-chlorophenyl)-5-{N-[5-(3-fluorophenyl)-1,2,4-triazin-3-yl]sulfamoyl}benzamide]	97 ± 2 µM	82 ± 1 µM	90 ± 1 µM	–	–
COc1ccc(-c2cnnc(NS(=O)(=O)c3cc(C)c(Cl)cc3SCc3ccccc3)n2)cc1 [Compound 29, 2-Benzylthio-4-chloro-N-[5-(4-methoxyphenyl)-1,2,4-triazin-3-yl]-5-methylbenzenesulfonamide]	720 ± 36 µM	190 ± 7 µM	110 ± 2 µM	–	–
COc1ccc(-c2cnnc(NS(=O)(=O)c3cc(C(=O)Nc4ccc(Cl)cc4)c(Cl)cc3SCc3ccccc3)n2)cc1OC [Compound 49, 4-Benzylthio-2-chloro-N-(4-chlorophenyl)-5-{N-[5-(3,4-dimethoxyphenyl)-1,2,4-triazin-3-yl]sulfamoyl}-benzamide]	110 ± 2 µM	120 ± 6 µM	81 ± 5 µM	–	–
COc1cc(-c2cnnc(NS(=O)(=O)c3cc(C(=O)Nc4ccc(Cl)cc4)c(Cl)cc3SCc3ccccc3)n2)cc(OC)c1OC [Compound 50, 4-Benzylthio-2-chloro-N-(4-chlorophenyl)-5-{N-[5-(3,4,5-trimethoxyphenyl)-1,2,4-triazin-3-yl]sulfamoyl}-benzamide]	115 ± 3 µM	130 ± 8 µM	120 ± 4 µM	–	–
Cc1ccc(NC(=O)c2cc(S(=O)(=O)Nc3nncc(-c4cccc(F)c4)n3)c(SCc3ccccc3)cc2Cl)cc1 [Compound 51, 4-Benzylthio-2-chloro-5-{N-[5-(3-fluorophenyl)-1,2,4-triazin-3-yl]sulfamoyl}-N-(4-methylphenyl)benzamide]	190 ± 13 µM	–	95 ± 5 µM	–	100%
COc1ccc(NC(=O)c2cc(S(=O)(=O)Nc3nncc(-c4ccc(OC)c(OC)c4)n3)c(SCc3ccccc3)cc2Cl)cc1 [Compound 59, 4-Benzylthio-2-chloro-5-{N-[5-(3,4-dimethoxyphenyl)-1,2,4-triazin-3-yl]sulfamoyl}-N-(4-methoxyphenyl)-benzamide]	140 ± 5 µM	150 ± 2 µM	100 ± 5 µM	–	–
COc1ccc(NC(=O)c2cc(S(=O)(=O)Nc3nncc(-c4cccc(OC)c4)n3)c(SCc3ccccc3)cc2Cl)cc1 [Compound 58, 4-Benzylthio-2-chloro-N-(4-methoxyphenyl)-5-{N-[5-(3-methoxyphenyl)-1,2,4-triazin-3-yl]sulfamoyl}benzamide]	98 ± 2 µM	88 ± 6 µM	92 ± 6 µM	–	–

The next lines start with results.

IC50 (HCT-116 (colon cancer))	IC50 (HeLa (cervical cancer))	IC50 (MCF-7 (breast cancer); [1])	Structure (SMILES)	IC50 (MCF-7 (breast cancer); 72 h of incubation)	viability at 100 µM (HeLa (cervical cancer); HeLa, 100 μM, read-out: Viability of cell line at 100 μM (HeLa))
76 ± 2 µM	74 ± 2 µM	88 ± 2 µM	COc1ccc(-c2cnnc(NS(=O)(=O)c3cc(C(=O)Nc4ccc(C)cc4)c(Cl)cc3SCc3ccccc3)n2)cc1 [Compound 53, 4-Benzylthio-2-chloro-5-{N-[5-(4-methoxyphenyl)-1,2,4-triazin-3-yl]sulfamoyl}-N-(4-methylphenyl)-benzamide]	–	–
73 ± 1 µM	80 ± 1 µM	90 ± 1 µM	COc1ccc(NC(=O)c2cc(S(=O)(=O)Nc3nncc(-c4ccc(OC)cc4)n3)c(SCc3ccccc3)cc2Cl)cc1 [Compound 57, 4-Benzylthio-2-chloro-N-(4-methoxyphenyl)-5-{N-[5-(4-methoxyphenyl)-1,2,4-triazin-3-yl]sulfamoyl}benzamide]	–	–
80 ± 3 µM	80 ± 2 µM	87 ± 3 µM	COc1cccc(-c2cnnc(NS(=O)(=O)c3cc(C(=O)Nc4ccc(Cl)cc4)c(Cl)cc3SCc3ccccc3)n2)c1 [Compound 48, 4-Benzylthio-2-chloro-N-(4-chlorophenyl)-5-{N-[5-(3-methoxyphenyl)-1,2,4-triazin-3-yl]sulfamoyl}-benzamide]	–	–
88 ± 3 µM	87 ± 4 µM	87 ± 4 µM	COc1cc(-c2cnnc(NS(=O)(=O)c3cc(C)c(Cl)cc3SCc3ccccc3)n2)cc(OC)c1OC [Compound 32, 2-Benzylthio-4-chloro-5-methyl-N-[5-(3,4,5-trimethoxyphenyl)-1,2,4-triazin-3-yl]benzenesulfonamide]	–	–
77 ± 2 µM	82 ± 1 µM	83 ± 2 µM	COc1ccc(-c2cnnc(NS(=O)(=O)c3cc(C(=O)Nc4ccccc4)c(Cl)cc3SCc3ccccc3)n2)cc1 [Compound 42, 4-Benzylthio-2-chloro-5-{N-[5-(4-methoxyphenyl)-1,2,4-triazin-3-yl]sulfamoyl}-N-phenylbenzamide]	–	–
75 ± 1 µM	84 ± 1 µM	80 ± 2 µM	Cc1cc(S(=O)(=O)Nc2nncc(-c3cccc(F)c3)n2)c(SCc2ccccc2)cc1Cl [Compound 27, 2-Benzylthio-4-chloro-N-[5-(3-fluorophenyl)-1,2,4-triazin-3-yl]-5-methylbenzenesulfonamide]	–	–
84 ± 5 µM	82 ± 1 µM	96 ± 5 µM	COc1cccc(-c2cnnc(NS(=O)(=O)c3cc(C(=O)Nc4ccc(C)cc4)c(Cl)cc3SCc3ccccc3)n2)c1 [Compound 54, 4-Benzylthio-2-chloro-5-{N-[5-(3-methoxyphenyl)-1,2,4-triazin-3-yl]sulfamoyl}-N-(4-methylphenyl)benzamide]	–	–
75 ± 2 µM	80 ± 2 µM	89 ± 3 µM	COc1cc(-c2cnnc(NS(=O)(=O)c3cc(C(=O)Nc4ccc(C)cc4)c(Cl)cc3SCc3ccccc3)n2)cc(OC)c1OC [Compound 56, 4-Benzylthio-2-chloro-N-(4-methylphenyl)-5-{N-[5-(3,4,5-trimethoxyphenyl)-1,2,4-triazin-3-yl]sulfamoyl}-benzamide]	–	–
67 ± 1 µM	76 ± 3 µM	88 ± 1 µM	Cc1cc(S(=O)(=O)Nc2nncc(-c3cccc(F)c3)n2)c(SCc2ccc(C(F)(F)F)cc2)cc1Cl [Compound 33, 4-Chloro-N-[5-(3-fluorophenyl)-1,2,4-triazin-3-yl]-5-methyl-2-[4-(trifluoromethyl)benzylthio]benzenesulfonamide]	–	–
